Data as given in the supplement of paper PMC10307832.

What was measured:
Test in all cases: relative viability (nuclei count vs DMSO), 5 days (fraction); higher = more cells survive
[1] = compound: O=C(CCCCCCNC(=O)c1cnc(N(c2ccccc2)c2ccccc2)nc1)NO [Ricolinostat] + CC(=O)c1c(C)c2cnc(Nc3ccc(N4CCNCC4)cn3)nc2n(C2CCCC2)c1=O [Palbociclib] (partner 0.5 µM)
In short: (§1)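 Relative viability divides the nuclei count in treated wells by that in vehicle wells. Lung cancer cell lines were seeded in 1536-well plates, dosed by pin tool the next day, and fixed and stained after 5 days in one step with final 0.05% Triton X-100, 1% formaldehyde and 1 ug/ml Hoechst. Dosing was a single drug or a fixed anchor-drug dose plus five library-drug doses (not always all listed) in √10 steps, and values are medians of duplicate plates imaged at 4×.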

[2] = compound: O=C(CCCCCCNC(=O)c1cnc(N(c2ccccc2)c2ccccc2)nc1)NO [Ricolinostat] + CC(=O)Nc1cccc(-n2c(=O)n(C3CC3)c(=O)c3c(Nc4ccc(I)cc4F)n(C)c(=O)c(C)c32)c1 [Trametinib] (partner 0.02 µM)
In short: as §1

[3] = compound: C1=CC=C(C(=C1)C2=CC=C(C=C2)C3=CSC4=C3C(=C(C(=O)N4)C#N)O)O + CS(=O)(=O)CCNCc1ccc(-c2ccc3ncnc(Nc4ccc(OCc5cccc(F)c5)c(Cl)c4)c3c2)o1 [Lapatinib] (partner 2 µM)
In short: as §1

[4] = compound: O=C(CCCCCCNC(=O)c1cnc(N(c2ccccc2)c2ccccc2)nc1)NO [Ricolinostat] + C[C@@H](Oc1cc(-c2cnn(C3CCNCC3)c2)cnc1N)c1c(Cl)ccc(F)c1Cl [Crizotinib] (partner 1 µM)
In short: as §1

Work on NCI-H727 yielded a relative viability ([1]; first compound 0.08 µM) of 0.645, a relative viability ([1]; first compound 0.253 µM) of 0.627 and a relative viability ([1]; first compound 0.8 µM) of 0.705. For the same cell line, the relative viability ([1]; first compound 2.53 µM) was 0.683, the relative viability ([2]; first compound 0.08 µM) was 0.383 and the relative viability ([2]; first compound 0.253 µM) was 0.416. It also gave a relative viability ([2]; first compound 0.8 µM) of 0.412, a relative viability ([2]; first compound 2.53 µM) of 0.355 and a relative viability ([3]; first compound 0.08 µM) of 0.834. The relative viability ([3]; first compound 0.253 µM) was 0.844, the relative viability ([3]; first compound 0.8 µM) was 0.927 and the relative viability ([3]; first compound 2.53 µM) was 0.589. The relative viability ([3]; first compound 8 µM) was 0.757, the relative viability ([4]; first compound 0.08 µM) was 0.748 and the relative viability ([4]; first compound 0.253 µM) was 0.782. The relative viability ([4]; first compound 0.8 µM) was 0.802 and the relative viability ([4]; first compound 2.53 µM) was 0.704.
For NCI-H838, the relative viability ([1]; first compound 0.08 µM) was 0.202, the relative viability ([1]; first compound 0.253 µM) was 0.262 and the relative viability ([1]; first compound 0.8 µM) was 0.182. It also gave a relative viability ([1]; first compound 2.53 µM) of 0.235, a relative viability ([2]; first compound 0.08 µM) of 0.495 and a relative viability ([2]; first compound 0.253 µM) of 0.546. The relative viability ([2]; first compound 0.8 µM) was 0.548, the relative viability ([2]; first compound 2.53 µM) was 0.375 and the relative viability ([3]; first compound 0.08 µM) was 0.659. The relative viability ([3]; first compound 0.253 µM) was 1.11, the relative viability ([3]; first compound 0.8 µM) was 0.973 and the relative viability ([3]; first compound 2.53 µM) was 0.887. The relative viability ([3]; first compound 8 µM) was 0.872, the relative viability ([4]; first compound 0.08 µM) was 0.672 and the relative viability ([4]; first compound 0.253 µM) was 0.896. The relative viability ([4]; first compound 0.8 µM) was 0.899 and the relative viability ([4]; first compound 2.53 µM) was 0.731.
With NCI-H1355 the relative viability ([1]; first compound 0.08 µM) was 0.373, the relative viability ([1]; first compound 0.253 µM) was 0.367 and the relative viability ([1]; first compound 0.8 µM) was 0.31. For the same cell line, the relative viability ([1]; first compound 2.53 µM) was 0.402, the relative viability ([2]; first compound 0.08 µM) was 0.411 and the relative viability ([2]; first compound 0.253 µM) was 0.43. It also gave a relative viability ([2]; first compound 0.8 µM) of 0.346, a relative viability ([2]; first compound 2.53 µM) of 0.412 and a relative viability ([3]; first compound 0.08 µM) of 0.949. For the same cell line, the relative viability ([3]; first compound 0.253 µM) was 0.966, the relative viability ([3]; first compound 0.8 µM) was 1.1 and the relative viability ([3]; first compound 2.53 µM) was 0.81. For the same cell line, the relative viability ([3]; first compound 8 µM) was 0.999, the relative viability ([4]; first compound 0.253 µM) was 1.01 and the relative viability ([4]; first compound 0.8 µM) was 0.995. It also gave a relative viability ([4]; first compound 2.53 µM) of 1.02.
NCI-H1437 showed a relative viability ([1]; first compound 0.08 µM) of 0.357, a relative viability ([1]; first compound 0.253 µM) of 0.311 and a relative viability ([1]; first compound 0.8 µM) of 0.282. It also gave a relative viability ([1]; first compound 2.53 µM) of 0.227, a relative viability ([2]; first compound 0.08 µM) of 0.458 and a relative viability ([2]; first compound 0.253 µM) of 0.502. It also gave a relative viability ([2]; first compound 0.8 µM) of 0.392, a relative viability ([2]; first compound 2.53 µM) of 0.356 and a relative viability ([3]; first compound 0.08 µM) of 0.72. It also gave a relative viability ([3]; first compound 0.253 µM) of 0.794, a relative viability ([3]; first compound 0.8 µM) of 0.772 and a relative viability ([3]; first compound 2.53 µM) of 0.891. For the same cell line, the relative viability ([3]; first compound 8 µM) was 0.527, the relative viability ([4]; first compound 0.08 µM) was 0.825 and the relative viability ([4]; first compound 0.253 µM) was 0.931. It also gave a relative viability ([4]; first compound 0.8 µM) of 0.918 and a relative viability ([4]; first compound 2.53 µM) of 0.765.
NCI-H1650 gave a relative viability ([1]; first compound 0.08 µM) of 0.322, a relative viability ([1]; first compound 0.253 µM) of 0.294 and a relative viability ([1]; first compound 0.8 µM) of 0.344. For the same cell line, the relative viability ([1]; first compound 2.53 µM) was 0.275, the relative viability ([2]; first compound 0.08 µM) was 0.791 and the relative viability ([2]; first compound 0.253 µM) was 0.583. The relative viability ([2]; first compound 0.8 µM) was 0.525, the relative viability ([2]; first compound 2.53 µM) was 0.43 and the relative viability ([3]; first compound 0.253 µM) was 0.872. For the same cell line, the relative viability ([3]; first compound 0.8 µM) was 0.811, the relative viability ([3]; first compound 2.53 µM) was 0.72 and the relative viability ([3]; first compound 8 µM) was 0.54. For the same cell line, the relative viability ([4]; first compound 0.08 µM) was 1.04, the relative viability ([4]; first compound 0.253 µM) was 0.926 and the relative viability ([4]; first compound 0.8 µM) was 0.714. The relative viability ([4]; first compound 2.53 µM) was 0.784.
NCI-H1651 gave a relative viability ([1]; first compound 0.08 µM) of 0.499, a relative viability ([1]; first compound 0.253 µM) of 0.512 and a relative viability ([1]; first compound 0.8 µM) of 0.512. It also gave a relative viability ([1]; first compound 2.53 µM) of 0.542, a relative viability ([2]; first compound 0.08 µM) of 0.768 and a relative viability ([2]; first compound 0.253 µM) of 0.794. For the same cell line, the relative viability ([2]; first compound 0.8 µM) was 0.83, the relative viability ([2]; first compound 2.53 µM) was 0.835 and the relative viability ([3]; first compound 0.08 µM) was 0.697. For the same cell line, the relative viability ([3]; first compound 0.253 µM) was 0.799, the relative viability ([3]; first compound 0.8 µM) was 0.78 and the relative viability ([3]; first compound 2.53 µM) was 0.821. The relative viability ([3]; first compound 8 µM) was 0.683, the relative viability ([4]; first compound 0.08 µM) was 0.843 and the relative viability ([4]; first compound 0.253 µM) was 0.84. For the same cell line, the relative viability ([4]; first compound 0.8 µM) was 0.88 and the relative viability ([4]; first compound 2.53 µM) was 0.816.
With NCI-H1666 the relative viability ([1]; first compound 0.08 µM) was 0.741, the relative viability ([1]; first compound 0.253 µM) was 0.664 and the relative viability ([1]; first compound 0.8 µM) was 0.644. For the same cell line, the relative viability ([1]; first compound 2.53 µM) was 0.598, the relative viability ([2]; first compound 0.08 µM) was 0.872 and the relative viability ([2]; first compound 0.253 µM) was 0.869. For the same cell line, the relative viability ([2]; first compound 0.8 µM) was 0.84, the relative viability ([2]; first compound 2.53 µM) was 0.879 and the relative viability ([3]; first compound 0.08 µM) was 0.667. The relative viability ([3]; first compound 0.253 µM) was 0.826, the relative viability ([3]; first compound 0.8 µM) was 0.577 and the relative viability ([3]; first compound 2.53 µM) was 0.427. For the same cell line, the relative viability ([3]; first compound 8 µM) was 0.59, the relative viability ([4]; first compound 0.08 µM) was 0.767 and the relative viability ([4]; first compound 0.253 µM) was 1.16. It also gave a relative viability ([4]; first compound 0.8 µM) of 0.944 and a relative viability ([4]; first compound 2.53 µM) of 0.776.
NCI-H1734 was tested, and the relative viability ([1]; first compound 0.08 µM) was 0.343, the relative viability ([1]; first compound 0.253 µM) was 0.35 and the relative viability ([1]; first compound 0.8 µM) was 0.4. The relative viability ([1]; first compound 2.53 µM) was 0.389, the relative viability ([2]; first compound 0.08 µM) was 0.582 and the relative viability ([2]; first compound 0.253 µM) was 0.629. The relative viability ([2]; first compound 0.8 µM) was 0.682, the relative viability ([2]; first compound 2.53 µM) was 0.785 and the relative viability ([3]; first compound 0.08 µM) was 1.09. For the same cell line, the relative viability ([3]; first compound 0.253 µM) was 1.05, the relative viability ([3]; first compound 0.8 µM) was 1.16 and the relative viability ([3]; first compound 2.53 µM) was 1.01. The relative viability ([3]; first compound 8 µM) was 0.887, the relative viability ([4]; first compound 0.08 µM) was 0.561 and the relative viability ([4]; first compound 0.253 µM) was 0.792. The relative viability ([4]; first compound 0.8 µM) was 0.706 and the relative viability ([4]; first compound 2.53 µM) was 0.581.
Work on NCI-H1755 yielded a relative viability ([1]; first compound 0.08 µM) of 0.463, a relative viability ([1]; first compound 0.253 µM) of 0.458 and a relative viability ([1]; first compound 0.8 µM) of 0.493. For the same cell line, the relative viability ([1]; first compound 2.53 µM) was 0.453, the relative viability ([2]; first compound 0.08 µM) was 0.694 and the relative viability ([2]; first compound 0.253 µM) was 0.678. It also gave a relative viability ([2]; first compound 0.8 µM) of 0.814, a relative viability ([2]; first compound 2.53 µM) of 0.779 and a relative viability ([3]; first compound 0.08 µM) of 0.938. It also gave a relative viability ([3]; first compound 0.253 µM) of 1.11, a relative viability ([3]; first compound 0.8 µM) of 0.875 and a relative viability ([3]; first compound 2.53 µM) of 1.11. It also gave a relative viability ([3]; first compound 8 µM) of 1.1, a relative viability ([4]; first compound 0.08 µM) of 0.786 and a relative viability ([4]; first compound 0.8 µM) of 0.893. For the same cell line, the relative viability ([4]; first compound 2.53 µM) was 0.79.
